Laboratory results taken from patent US9890166B2, “Imidazopyrrolidine derivatives and their use in the treatment of disease” (NOVARTIS AG, priority 2013, dated 2018).

Experiments:
K-562 cells = assay: Cell growth inhibition assay (CellTiter-Glo), K-562; details: for GI50: Homo sapiens, K562, read-out: K-562 GI50; for K-562 TGI: K-562 cells, total growth inhibition, CellTiter-Glo;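 for all read-outs here: cellular ATP measured by luminescence after 4 days of exposure, 3-fold dilution series from 10 µM, DMSO vehicle-treated cells define 100%, cell-free medium wells −100%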
[1] = molecular target: CREBBP bromodomain (His-CREBBP(1081-1197)) (Homo sapiens (Human), UniProt Q92793); assay: AlphaScreen in-vitro binding assay for CREBBP; details: single determination or n ≧ 2 independent determinations, read-out: Biochemical IC50 CREBBP
How it was run: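 Reactions at 30 °C for 35 min, then Ni-chelate acceptor and streptavidin donor beads in HEPES pH 7.5, NaCl, Tween20, BSA, 60 min at room temperature. Eight-point compound series; IC50 by non-linear regression of percent inhibition.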

BRD2 (His-Brd2(60-472)) = BRD2 (His-Brd2(60-472)) (Homo sapiens (Human), UniProt P25440); assay: TR-FRET in-vitro binding assay for BRD2; details: single determination or n ≧ 2 independent determinations, read-out: Biochemical IC50 BRD2
How it was run: (§1)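 TR-FRET binding with His-tagged bromodomain constructs, 8-point compound dilutions from 10 mM DMSO stocks. Reactions incubated 35 min at 30° C in 13.55 μL, read on an EnVision multilabel reader.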

MV-4-11 cells = assay: Cell growth inhibition assay (CellTiter-Glo), MV-4-11; details: for GI50: Homo sapiens, MV4-11, read-out: MV-4-11 GI50; for MV-4-11 TGI: MV-4-11 cells, total growth inhibition, CellTiter-Glo;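 for all read-outs here: cellular ATP luminescence after 4 days, 3-fold dilution series from 10 µM top dose, vehicle (0.1% DMSO) set to 100%, cell-free medium set to −100%, day 0 corrected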
BRD4 (His-Brd4(44-477)) = BRD4 (His-Brd4(44-477)) (Homo sapiens (Human), UniProt O60885); assay: TR-FRET in-vitro binding assay for BRD4; details: single determination or n ≧ 2 independent determinations, read-out: Biochemical IC50 BRD4
How it was run: as §1

THP-1 cells = assay: Cell growth inhibition assay (CellTiter-Glo), THP-1; details: for GI50: Homo sapiens, THP-1, read-out: THP-1 GI50; for THP-1 TGI: THP-1 cells, total growth inhibition, CellTiter-Glo;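 for all read-outs here: viability read as cellular ATP luminescence after 4 days, 3-fold dilution series from 10 µM, DMSO vehicle-treated cells taken as 100%, cell-free medium wells as −100%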
[2] = molecular target: nuclear BRD4-NUT foci in HCC2494 NUT midline carcinoma cells (Homo sapiens, UniProt O60885); assay: cell-based
BRD3 (His-Brd3(20-477)) = BRD3 (His-Brd3(20-477)) (Homo sapiens (Human), UniProt Q15059); assay: TR-FRET in-vitro binding assay for BRD3; details: single determination or n ≧ 2 independent determinations, read-out: Biochemical IC50 BRD3
How it was run: as §1

BRD3 (His-Brd3(20-477)), sequence (Q15059 20-477): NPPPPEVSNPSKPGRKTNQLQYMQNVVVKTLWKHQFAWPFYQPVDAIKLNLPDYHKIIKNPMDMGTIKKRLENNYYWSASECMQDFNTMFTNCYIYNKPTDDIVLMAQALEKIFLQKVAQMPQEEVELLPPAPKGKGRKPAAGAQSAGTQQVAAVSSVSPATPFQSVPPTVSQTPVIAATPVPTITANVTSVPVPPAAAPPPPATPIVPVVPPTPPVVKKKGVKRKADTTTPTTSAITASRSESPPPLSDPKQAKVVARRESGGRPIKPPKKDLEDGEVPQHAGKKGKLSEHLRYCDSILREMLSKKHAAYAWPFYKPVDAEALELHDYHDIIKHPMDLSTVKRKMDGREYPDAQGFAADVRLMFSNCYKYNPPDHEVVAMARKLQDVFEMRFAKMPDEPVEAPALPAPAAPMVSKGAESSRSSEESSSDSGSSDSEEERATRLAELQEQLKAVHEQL
BRD2 (His-Brd2(60-472)), sequence (P25440 60-472): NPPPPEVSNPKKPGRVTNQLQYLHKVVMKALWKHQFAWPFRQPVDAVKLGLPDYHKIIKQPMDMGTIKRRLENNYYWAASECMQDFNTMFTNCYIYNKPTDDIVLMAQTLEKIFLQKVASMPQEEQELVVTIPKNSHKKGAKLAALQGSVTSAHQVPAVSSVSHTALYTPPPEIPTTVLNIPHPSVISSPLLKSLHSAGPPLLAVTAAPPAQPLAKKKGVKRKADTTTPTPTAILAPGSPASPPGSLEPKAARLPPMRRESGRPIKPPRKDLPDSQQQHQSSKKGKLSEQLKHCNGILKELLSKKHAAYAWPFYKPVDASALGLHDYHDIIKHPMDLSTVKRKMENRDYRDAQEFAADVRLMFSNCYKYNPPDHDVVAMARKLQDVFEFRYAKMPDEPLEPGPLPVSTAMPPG
CREBBP bromodomain (His-CREBBP(1081-1197)), sequence (Q92793 1081-1197): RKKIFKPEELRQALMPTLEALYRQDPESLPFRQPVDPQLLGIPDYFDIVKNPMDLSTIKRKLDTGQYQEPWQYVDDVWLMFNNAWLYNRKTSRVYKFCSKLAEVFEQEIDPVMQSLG

Row | SMILES | GI50 (K-562 cells) | K-562 TGI (K-562 cells) | IC50 [1] | IC50 (BRD2 (His-Brd2(60-472))) | GI50 (MV-4-11 cells) | MV-4-11 TGI (MV-4-11 cells) | IC50 (BRD4 (His-Brd4(44-477))) | GI50 (THP-1 cells) | THP-1 TGI (THP-1 cells) | IC50 [2] | IC50 (BRD3 (His-Brd3(20-477)))
1 | Cc1cc(N2C(=O)c3nc(C4CC4)n(C(C)C)c3C2c2ccc(Cl)cc2)cn2c(C)nnc12 (racemic) [Example 13, 6-(4-chlorophenyl)-2-cyclopropyl-5-(3,8-dimethyl-[1,2,4]triazolo[4,3-a]pyridin-6-yl)-1-isopropyl-5,6-dihydropyrrolo[3,4-d]imidazol-4(1H)-one] | 114 nM | >10000 nM | 4500 nM | 41 nM | 11.3 nM | 27.15 nM | 37 nM | 26.1 nM | 59.45 nM | 16.1 nM | 39 nM
2 | Cc1cc(N2C(=O)c3nc(C)n(C(C)C)c3C2c2ccc(Cl)cc2)nn2c(C)nnc12 (racemic) [Example 18, 6-(4-chlorophenyl)-5-(3,8-dimethyl-[1,2,4]triazolo[4,3-b]pyridazin-6-yl)-1-isopropyl-2-methyl-5,6-dihydropyrrolo[3,4-d]imidazol-4(1H)-one] | 91 nM | >10000 nM | 27700 nM | 19 nM | 11.2 nM | 26.95 nM | 13 nM | 15.9 nM | 35.6 nM | 7.55 nM | 11 nM
3 | COc1ccc(-c2nc3c([nH]2)C(c2ccc(Cl)cc2)N(c2cc(C)c(=O)n(C)c2)C3=O)cn1 (stereo not shown) [Example 4, 6-(4-chlorophenyl)-5-(1,5-dimethyl-6-oxo-1,6-dihydropyridin-3-yl)-2-(6-methoxypyridin-3-yl)-5,6-dihydropyrrolo[3,4-d]imidazol-4(1H)-one] | 254 nM | >10000 nM | 1400 nM | 68 nM | 69.5 nM | 116 nM | 64 nM | 110 nM | 207 nM | 74.7 nM | 68 nM
4 | COc1ccc(-c2nc3c([nH]2)[C@@H](c2ccc(Cl)cc2)N(c2cc(C)c(=O)n(C)c2)C3=O)cn1 [Example 5, (R)-6-(4-chlorophenyl)-5-(1,5-dimethyl-6-oxo-1,6-dihydropyridin-3-yl)-2-(6-methoxypyridin-3-yl)-5,6-dihydropyrrolo[3,4-d]imidazol-4(1H)-one] | 221 nM | >10000 nM | 560 nM | 32 nM | 37.1 nM | 73.9 nM | 30 nM | 60 nM | 106 nM | 67 nM | 38 nM
5 | COc1ccc(-c2nc3c(n2C)C(=O)N(c2cc(C)c(=O)n(C)c2)C3c2ccc(Cl)cc2)cn1 (stereo not shown) [Example 6, 6-(4-chlorophenyl)-5-(1,5-dimethyl-6-oxo-1,6-dihydropyridin-3-yl)-2-(6-methoxypyridin-3-yl)-3-methyl-5,6-dihydropyrrolo[3,4-d]imidazol-4(3H)-one] | 230 nM | >10000 nM | 2700 nM | 88 nM | 60.1 nM | 102 nM | 92 nM | 161 nM | 324 nM | 86.3 nM | 88 nM
6 | COc1ccc(-c2nc3c(n2C)C(=O)N(c2cc(C)c(=O)n(C)c2)[C@@H]3c2ccc(Cl)cc2)cn1 [Example 7, (R)-6-(4-chlorophenyl)-5-(1,5-dimethyl-6-oxo-1,6-dihydropyridin-3-yl)-2-(6-methoxypyridin-3-yl)-3-methyl-5,6-dihydropyrrolo[3,4-d]imidazol-4(3H)-one] | 170 nM | >10000 nM | 1500 nM | 60 nM | 44.6 nM | 85 nM | 56 nM | 65.5 nM | 111 nM | 73.5 nM | 48 nM
7 | COc1ccc(-c2nc3c(n2C)C(c2ccc(Cl)cc2)N(c2cc(C)c(=O)n(C)c2)C3=O)cn1 (stereo not shown) [Example 8, 6-(4-chlorophenyl)-5-(1,5-dimethyl-6-oxo-1,6-dihydropyridin-3-yl)-2-(6-methoxypyridin-3-yl)-1-methyl-5,6-dihydropyrrolo[3,4-d]imidazol-4(1H)-one] | 309 nM | >10000 nM | 970 nM | 91 nM | 51 nM | 98 nM | 86 nM | 152 nM | 314 nM | 92 nM | 79 nM
8 | COc1ccc(-c2nc3c(n2C(C)C)C(c2ccc(Cl)cc2)N(c2cc(C)c4nnc(C)n4c2)C3=O)cn1 (stereo not shown) [Example 9, 6-(4-chlorophenyl)-5-(3,8-dimethyl-[1,2,4]triazolo[4,3-a]pyridin-6-yl)-1-isopropyl-2-(6-methoxypyridin-3-yl)-5,6-dihydropyrrolo[3,4-d]imidazol-4(1H)-one] | 258 nM | >10000 nM | > 37000 nM | 43 nM | 48.4 nM | 94.2 nM | 34 nM | 98.7 nM | 175 nM | 2090 nM | 34 nM
9 | COc1ncc(-c2nc3c(n2C(C)C)C(c2ccc(Cl)cc2)N(c2cc(C)c4nnc(C)n4c2)C3=O)c(OC)n1 (stereo not shown) [Example 10, 6-(4-chlorophenyl)-2-(2,4-dimethoxypyrimidin-5-yl)-5-(3,8-dimethyl-[1,2,4]triazolo[4,3-a]pyridin-6-yl)-1-isopropyl-5,6-dihydropyrrolo[3,4-d]imidazol-4(1H)-one] | 326 nM | >10000 nM | 6300 nM | 60 nM | 29.7 nM | 78.5 nM | 45 nM | 158 nM | 302 nM | 180 nM | 59 nM
10 | Cc1cc(N2C(=O)c3nc(C4=CCOC4)n(C(C)C)c3C2c2ccc(Cl)cc2)cn2c(C)nnc12 (stereo not shown) [Example 11, 6-(4-chlorophenyl)-2-(2,5-dihydrofuran-3-yl)-5-(3,8-dimethyl-[1,2,4]triazolo[4,3-a]pyridin-6-yl)-1-isopropyl-5,6-dihydropyrrolo[3,4-d]imidazol-4(1H)-one] | 330 nM | >10000 nM | 5700 nM | 41 nM | 48.5 nM | 97.75 nM | 18 nM | 90.9 nM | 202.5 nM | 110 nM | 25 nM
11 | Cc1cc(N2C(=O)c3nc(C4=CCCN(C)C4)n(C(C)C)c3C2c2ccc(Cl)cc2)cn2c(C)nnc12 (stereo not shown) [Example 12, 6-(4-chlorophenyl)-5-(3,8-dimethyl-[1,2,4]triazolo[4,3-a]pyridin-6-yl)-1-isopropyl-2-(1-methyl-1,2,5,6-tetrahydropyridin-3-yl)-5,6-dihydropyrrolo[3,4-d]imidazol-4(1H)-one] | 1040 nM | >10000 nM | 8900 nM | 43 nM | 42.2 nM | 78.45 nM | 20 nM | 264 nM | 715 nM | 374 nM | 21 nM
